Reference: patent publication US9463188B2, “Osteopontin production inhibitor containing dictyopyrone derivative or dihydrodictyopyrone derivative as active ingredient” (TOHOKU UNIVERSITY, priority 2013, dated 2016)

Test system: OPN promoter in A549/OPNluc cells
Assay: Influence of mevalonic acid on suppression of luciferase activity under control of OPN promoter
Assay type: cell-based, human
Description: In order to determine whether the OPN production inhibitory effect of a dictyopyrone derivative or a dihydrodictyopyrone derivative contained as an active ingredient in the OPN production inhibitor according to the present invention is based on the same mechanism of action as a well-known statin-based drug for treatment of hypercholesteremia, simvastatin or the compound 3 was added to a culture liquid containing A549/OPNluc cells to determine its effect on gene expression under control of OPN promoter and to observe whether or not the effect was maintained even in the presence of mevalonic acid. […]
The solution in each well was mixed with a vortex mixer, and then the 96-well plate was incubated in a CO2 incubator (at 37° C. and 5% CO2) for 48±4 hours. […] After 30 min, 90 min, and 120 min, absorbance values (450 nm) were measured using a microplate reader (Bio-Rad; Benchmark or Thermo Scientific; Varioskan Flash).
The absorbance values were input into an Excel file, and the absorbance values of all the samples of each test group were divided by the average absorbance value of Control to determine the ratio of the absorbance value of each sample to the absorbance value of Control (Ratio to Control). Absorbance value of each sample÷absorbance value of Control=Ratio to Control […]

With `CCCCCCCCCCCC(=O)[C@H]1C(=O)O[C@@H](C)C[C@@H]1C` [Chemical formula 3] the “luciferase activity under control of OPN promoter after addition of MVA” value (compound 3 25 μM + MVA (100 μM or 1 mM)) was “not recovered” and the “luciferase activity under control of OPN promoter” value (compound 3 25 μM, no MVA, corrected by WST Ratio to Control) was “suppression of luciferase activity”.
